The text below walks through data of patent publication US20250154197A1, “LIPOLYTIC PEPTIDES” (FUNDACIÓ HOSPITAL UNIVERSITARI VALL D'HEBRON - INSTITUT DE …, priority 2021, published 2025).

Where no end group is shown, it is not given here. [ ]: non-standard residue; d: D form. The star is where a group is joined. Propionyl = CCC(=O)*

In one assay the test system is 3T3-L1 mouse adipocytes. In words: Lipolytic activity: glycerol release in differentiated 3T3-L1 mouse adipocytes (12 h). As to conditions: 3T3-L1 mouse adipocytes, 12 h. It counts as cell-based. The protocol:
JCRB9014-A) from Tebu-Bio (Tebu-bio, Barcelona, Spain). Briefly, mouse adipocytes (3T3-L1 cells) were cultured in 48 well plates as described previously (Saez-Lopez et al., 2020). Adipocytes were differentiated using cell culture reagents purchased from Tebu-Bio and following the manufacturer's instructions. At day of differentiation cells were treated in duplicates with vehicle (DMSO), Caffeine (100 μg/ml), and each of the peptides at the specified doses in Table 6a below. At the end of the experiment (12 h), supernatants were collected and glycerol content was measured using a Glycerol Assay Kit (Sigma) following manufacturer's instructions.

In assay [1] the test system is human subcutaneoous mature adipocytes. In words: Lipolytic activity: glycerol release in human adipocytes (Lipolysis Assay kit). As to conditions: human subcutaneous mature adipocytes. It counts as cell-based.

For “TWPEGVIFY (H-[dT][dW][dP][dE]G[dV][dI][dF][dY]-OH; not fully specified) [GP3D-9 III, N-term NH2, C-term COOH]”, in the assay on 3T3-L1 mouse adipocytes (100 μg/ml), the “Lipolysis Activity measured as Glycerol (μM) release in media” value (“Lipolysis Activity measured as Glycerol” for short) was 346 µM.

With “WDNEGLY (H-[dW][dD][dN][dE]G[dL][dY]-OH; SMILES CC(C)C[C@@H](NC(=O)CNC(=O)[C@@H](CCC(=O)O)NC(=O)[C@@H](CC(N)=O)NC(=O)[C@@H](CC(=O)O)NC(=O)[C@H](N)Cc1c[nH]c2ccccc12)C(=O)N[C@H](Cc1ccc(O)cc1)C(=O)O) [GP3D-DM4, N-term NH2, C-term COOH]”, the “Lipolysis Activity measured as Glycerol” value in the assay with 3T3-L1 mouse adipocytes (1 μg/ml) was 469 µM; in the assay with 3T3-L1 mouse adipocytes (10 μg/ml), 416 µM; in the assay with 3T3-L1 mouse adipocytes (100 μg/ml), 309 µM.

With “TWDPEGIFY (H-[dT][dW][dD][dP][dE]G[dI][dF][dY]-OH; not fully specified) [GP3D-9 VII, N-term NH2, C-term COOH]”, the “Lipolysis Activity measured as Glycerol” value in the assay on 3T3-L1 mouse adipocytes (100 μg/ml) was determined as 354 µM.

For “TDPEGVIF (H-[dT][dD][dP][dE]G[dV][dI][dF]-OH; not fully specified) [GP3D-8 II X, N-term NH2, C-term COOH]”, the “Lipolysis Activity measured as Glycerol” value with 3T3-L1 mouse adipocytes (1 μg/ml) is 391 µM; in the assay on 3T3-L1 mouse adipocytes (10 μg/ml) it was 434 µM; in the assay with 3T3-L1 mouse adipocytes (100 μg/ml), 493 µM.

Regarding “TWDPEGVI (H-[dT][dW][dD][dP][dE]G[dV][dI]-OH; not fully specified) [GP3D-8 IX X, N-term NH2, C-term COOH]”, the “Lipolysis Activity measured as Glycerol” value with 3T3-L1 mouse adipocytes (1 μg/ml) stood at 396 µM; with 3T3-L1 mouse adipocytes (10 μg/ml) it was 383 µM; in the assay with 3T3-L1 mouse adipocytes (100 μg/ml) it was 528 µM.

For “WDPEGVIY (H-[dW][dD][dP][dE]G[dV]I[dY]-OH; not fully specified (residue 7)) [GP3D-8 I IX, N-term NH2, C-term COOH]”, the “Lipolysis Activity measured as Glycerol” value in the assay on 3T3-L1 mouse adipocytes (1 μg/ml) stood at 452 µM; with 3T3-L1 mouse adipocytes (10 μg/ml), 426 µM; in the assay on 3T3-L1 mouse adipocytes (100 μg/ml), 588 µM.

Regarding “TDPEGVIFY (H-[dT][dD][dP][dE]G[dV][dI][dF][dY]-OH; not fully specified) [GP3D-9 II, N-term NH2, C-term COOH]”, the “Lipolysis Activity measured as Glycerol” value with 3T3-L1 mouse adipocytes (100 μg/ml) was found to be 315 µM.

In the case of “TWDPEGVIF (H-[dT][dW][dD][dP][dE]G[dV][dI][dF]-OH; not fully specified) [GP3D-9 X, N-term NH2, C-term COOH]”, the “Lipolysis Activity measured as Glycerol” value in the assay with 3T3-L1 mouse adipocytes (100 μg/ml) came out at 493 µM.

In the case of “TWDPEGVIY (H-[dT][dW][dD][dP][dE]G[dV][dI][dY]-OH; not fully specified) [GP3D-9 IX, N-term NH2, C-term COOH]”, the “Lipolysis Activity measured as Glycerol” value with 3T3-L1 mouse adipocytes (100 μg/ml) came to 356 µM.

For the substance “DPEGVLY (H-[dD][dP][dE]G[dV][dL][dY]-OH; SMILES CC(C)C[C@@H](NC(=O)[C@H](NC(=O)CNC(=O)[C@@H](CCC(=O)O)NC(=O)[C@H]1CCCN1C(=O)[C@H](N)CC(=O)O)C(C)C)C(=O)N[C@H](Cc1ccc(O)cc1)C(=O)O) [GP3D-DM3, N-term NH2, C-term COOH]”, in the assay with 3T3-L1 mouse adipocytes (100 μg/ml), the “Lipolysis Activity measured as Glycerol” value was determined as 307 µM.

In the case of “TWDPGVIFY (H-[dT][dW][dD][dP]G[dV][dI][dF][dY]-OH; not fully specified) [GP3D-9 V, N-term NH2, C-term COOH]”, in the assay on 3T3-L1 mouse adipocytes (100 μg/ml), the “Lipolysis Activity measured as Glycerol” value was 394 µM.

Take “Ac-TWDPEGVIFY-NH2 (Ac-[dT][dW][dD][dP][dE]G[dV][dI][dF][dY]-NH2; SMILES CC[C@@H](C)[C@@H](NC(=O)[C@H](NC(=O)CNC(=O)[C@@H](CCC(=O)O)NC(=O)[C@H]1CCCN1C(=O)[C@@H](CC(=O)O)NC(=O)[C@@H](Cc1c[nH]c2ccccc12)NC(=O)[C@H](NC(C)=O)[C@H](C)O)C(C)C)C(=O)N[C@H](Cc1ccccc1)C(=O)N[C@H](Cc1ccc(O)cc1)C(N)=O) [GP3D-AcNH2, N-term CH3CONH, C-term CONH2]”: the “Lipolysis Activity measured as Glycerol” value worked out at 606 µM in the assay on 3T3-L1 mouse adipocytes (1 μg/ml), 464 µM with 3T3-L1 mouse adipocytes (10 μg/ml) and 472 µM in the assay with 3T3-L1 mouse adipocytes (100 μg/ml).

Turning to “TWDPEGVIFY [GP3D-NH2] ([dT][dW][dD][dP][dE]G[dV][dI][dF][dY]-NH2; N-terminus assumed; SMILES CC[C@@H](C)[C@@H](NC(=O)[C@H](NC(=O)CNC(=O)[C@@H](CCC(=O)O)NC(=O)[C@H]1CCCN1C(=O)[C@@H](CC(=O)O)NC(=O)[C@@H](Cc1c[nH]c2ccccc12)NC(=O)[C@H](N)[C@H](C)O)C(C)C)C(=O)N[C@H](Cc1ccccc1)C(=O)N[C@H](Cc1ccc(O)cc1)C(N)=O) [N-term NH2, C-term CONH2]”, the “Lipolysis Activity measured as Glycerol” value in the assay on 3T3-L1 mouse adipocytes (1 μg/ml) was 506 µM; in the assay on 3T3-L1 mouse adipocytes (10 μg/ml), 449 µM; with 3T3-L1 mouse adipocytes (100 μg/ml) it was 368 µM.

On to “TWDPEVIFY (H-[dT][dW][dD][dP][dE][dV][dI][dF][dY]-OH; not fully specified) [GP3D-9 VI, N-term NH2, C-term COOH]”, for which the “Lipolysis Activity measured as Glycerol” value in the assay with 3T3-L1 mouse adipocytes (100 μg/ml) was 315 µM.

Consider “WDPEG (H-[dW][dD][dP][dE]G-OH; SMILES N[C@H](Cc1c[nH]c2ccccc12)C(=O)N[C@H](CC(=O)O)C(=O)N1CCC[C@@H]1C(=O)N[C@H](CCC(=O)O)C(=O)NCC(=O)O) [GP3D-5 I VII VIII IX X, N-term NH2, C-term COOH]”, for which the “Lipolysis Activity measured as Glycerol” value in the assay on 3T3-L1 mouse adipocytes (1 μg/ml) amounted to 368 µM; in the assay with 3T3-L1 mouse adipocytes (10 μg/ml), 349 µM; in the assay on 3T3-L1 mouse adipocytes (100 μg/ml), 398 µM.

Regarding “EtCONH-NDLEGLY (Propionyl-[dN][dD][dL][dE]G[dL][dY]-OH; SMILES CCC(=O)N[C@H](CC(N)=O)C(=O)N[C@H](CC(=O)O)C(=O)N[C@H](CC(C)C)C(=O)N[C@H](CCC(=O)O)C(=O)NCC(=O)N[C@H](CC(C)C)C(=O)N[C@H](Cc1ccc(O)cc1)C(=O)O) [GP3DM-26, N-term CH3CH2CONH, C-term COOH]”, the figures for the “Lipolysis Activity measured as Glycerol” value in assay [1] (25 μg/ml), in assay [1] (50 μg/ml) and in assay [1] (100 μg/ml) were 98.4 µM, 140.0 µM and 149.6 µM, respectively.

For the substance “acetyl-hexapeptide-39 (Ac-SIYVAT-NH2) [Hexa-39, reference compound]”, the “Lipolysis Activity measured as Glycerol” value in assay [1] (100 μg/ml) amounted to 29.21 µM.

Consider “NDLEGLY (H-[dN][dD][dL][dE]G[dL][dY]-OH; SMILES CC(C)C[C@@H](NC(=O)CNC(=O)[C@@H](CCC(=O)O)NC(=O)[C@@H](CC(C)C)NC(=O)[C@@H](CC(=O)O)NC(=O)[C@H](N)CC(N)=O)C(=O)N[C@H](Cc1ccc(O)cc1)C(=O)O) [GP3DM-21, N-term NH2, C-term COOH]”, for which the “Lipolysis Activity measured as Glycerol” value is 116.5 µM in assay [1] (25 μg/ml), 116.7 µM in assay [1] (50 μg/ml) and 102.5 µM in assay [1] (100 μg/ml).

For the substance “NDEGLY [GP3DM-23] (H-[dN][dD][dE]G[dL][dY]-OH; SMILES CC(C)C[C@@H](NC(=O)CNC(=O)[C@@H](CCC(=O)O)NC(=O)[C@@H](CC(=O)O)NC(=O)[C@H](N)CC(N)=O)C(=O)N[C@H](Cc1ccc(O)cc1)C(=O)O) [N-term NH2, C-term COOH]”, the “Lipolysis Activity measured as Glycerol” value was 139.7 µM in assay [1] (25 μg/ml), 97.7 µM in assay [1] (50 μg/ml) and 170.0 µM in assay [1] (100 μg/ml).
